The text below walks through data of ChEMBL document CHEMBL5030559, “Imaging Autotaxin In Vivo with 18F-Labeled Positron Emission Tomography Ligands” (J Med Chem, 2021).

One may read the Ki as the dissociation constant of the complex between target and ligand, obtained from inhibition or displacement.

One data set deals with Autotaxin (Homo sapiens, UniProt Q13822). The experiment in a line: Inhibition of ATX lysoPLD (unknown origin) using 18:1 LPC as substrate assessed as reduction in choline release by HVA fluorescence based analysis.
Data set [1] is described as follows: Drug uptake in iv dosed CD-1 mouse brain measured up to 60 mins post injection by PET imaging analysis. It counts as ADME, organism-based. Conditions: in vivo, 1 h; call rule not given here.
Data set [2] in a line: Drug uptake in iv dosed CD-1 mouse bone measured after 30 min by PET imaging analysis. Type of data set: ADME, organism-based, Bone element. The settings on record: in vivo, 0.5 h.
Data set [3] in a line: Ex vivo biodistribution in bone of iv dosed CD-1 mouse assessed as accumulation of radioactivity in bone measured after 15 to 60 min by PET imaging analysis. Type of data set: ADME, organism-based, Bone element. Conditions: time 15-60 min.
Data set [4] is described as follows: Drug uptake in iv dosed CD-1 mouse liver assessed as high radioactivity in liver measured up to 60 mins post injection by PET imaging analysis. Type of data set: ADME, organism-based. The settings on record: in vivo, 1 h.
Data set [5] in a line: Drug uptake in iv dosed CD-1 mouse kidney assessed as high radioactivity in kidney measured up to 60 mins post injection by PET imaging analysis. Type of data set: ADME, organism-based. Conditions: in vivo, 1 h.
Data set [6] can be described thus: Drug uptake in iv dosed CD-1 mouse small intestine assessed as high radioactivity in small intestine measured up to 60 mins post injection by PET imaging analysis. It counts as ADME, organism-based. Conditions: in vivo, 1 h.
A short description of data set [7]: Drug uptake in liver of LPS- induced CD-1 mouse model assessed as increase in signal of tracer in inflammed liver by measuring AUC (30 to 60 mins) relative to control. Type of data set: ADME, tissue-based. The settings on record: in vivo, time 30-60 min.
Data set [8] can be described thus: Drug uptake in liver of LPS- induced CD-1 mouse model assessed as increase in signal of tracer in liver measured after 30 mins by autoradiography analysis relative to control. Conditions: in vivo, 0.5 h. Type of data set: ADME, tissue-based.
The nature of data set [9]: Drug uptake in iv dosed CD-1 mouse bone assessed as accumulation of radioactivity in bone measured after 30 to 60 mins post injection by PET imaging analysis. Type of data set: ADME, organism-based, Bone element. Conditions: in vivo, time 30-60 min.
Data set [10] in a line: Drug uptake in iv dosed CD-1 mouse bone assessed as accumulation of radioactivity in bone measured after 30 mins post injection by PET imaging analysis. The settings on record: in vivo, 0.5 h. Type of data set: ADME, organism-based, Bone element.
The nature of data set [11]: Drug uptake in iv dosed CD-1 mouse bone assessed as accumulation of radioactivity in bone measured after 60 mins post injection by PET imaging analysis. It counts as ADME, organism-based, Bone element. The settings on record: in vivo, 1 h.

As to `CCc1nc2ccc(N3CCN(CC(=O)N4CCC(F)CC4)CC3)cn2c1N(C)c1nc(-c2ccc(F)cc2)c(C#N)s1`, the Ki on Autotaxin was 15 nM.
For the compound `CCc1nc2ccc(N3CCN(CC(=O)N4CC(OCCF)C4)CC3)cn2c1N(C)c1nc(-c2ccc(F)cc2)c(C#N)s1`, the inhibitory constant (Ki) at Autotaxin amounted to 17 nM.
In the case of `CCc1nc2ccc(N3CCN(CC(=O)N4CCC(C[18F])C4)CC3)cn2c1N(C)c1nc(-c2ccc(F)cc2)c(C#N)s1` (stereo not drawn), the Drug uptake result was “Not Active” in data set [1]; “Active” in data set [2]; “Active” in [3]; “Active” in [4]; “Active” in [5]; “Active” in data set [6].
As for `CCc1nc2ccc(N3CCN(CC(=O)N4CC(F)C4)CC3)cn2c1N(C)c1nc(-c2ccc(F)cc2)c(C#N)s1`, the Ki at Autotaxin was determined as 41 nM.
For the compound `[2H]C([2H])([18F])C([2H])([2H])N1CCN(C(=O)CN2CCN(c3ccc4nc(CC)c(N(C)c5nc(-c6ccc(F)cc6)c(C#N)s5)n4c3)CC2)CC1`, the Drug uptake entry in data set [3] was “Not Active”; in data set [4] it was “Active”; in data set [5], “Active”; in data set [6], “Active”; in data set [7], 84%; in data set [8], 92%.
Consider `CCc1nc2ccc(N3CCN(CC(=O)N4CCC([18F])C4)CC3)cn2c1N(C)c1nc(-c2ccc(F)cc2)c(C#N)s1` (stereo not drawn), for which, in data set [9], the Drug uptake came out at 10 % ID/g.
As for `CCc1nc2ccc(N3CCN(CC(=O)N4CCCC(F)C4)CC3)cn2c1N(C)c1nc(-c2ccc(F)cc2)c(C#N)s1` (stereo not drawn), the Ki on Autotaxin is 15 nM.
As for `CCc1nc2ccc(N3CCN(CC(=O)N4CC[C@H](F)C4)CC3)cn2c1N(C)c1nc(-c2ccc(F)cc2)c(C#N)s1`, on Autotaxin, the Ki was determined as 32 nM.
Take `CCc1nc2ccc(N3CCN(CC(=O)N4CC[C@@H](F)C4)CC3)cn2c1N(C)c1nc(-c2ccc(F)cc2)c(C#N)s1`: the Ki at Autotaxin was determined as 14 nM.
In the case of `CCc1nc2ccc(N3CCN(CC(=O)N4CCC(F)C4)CC3)cn2c1N(C)c1nc(-c2ccc(F)cc2)c(C#N)s1` (stereo not drawn), the Ki at Autotaxin stood at 15 nM.
On to `CCc1nc2ccc(N3CCN(CC(=O)N4CC(O)C4)CC3)cn2c1N(C)c1nc(-c2ccc(F)cc2)c(C#N)s1`, for which the Ki at Autotaxin came out at 30 nM.
As to `CCc1nc2ccc(N3CCN(CC(=O)N4CCN(CC[18F])CC4)CC3)cn2c1N(C)c1nc(-c2ccc(F)cc2)c(C#N)s1`, the Drug uptake was 6.6 % ID/g in data set [10] and 6.4 % ID/g in data set [11].
As to `CCc1nc2ccc(N3CCN(CC(=O)N4CC(CF)C4)CC3)cn2c1N(C)c1nc(-c2ccc(F)cc2)c(C#N)s1`, the Ki on Autotaxin amounted to 14 nM.
On the same count and under the same terms, under `[2H]C([2H])(F)C([2H])([2H])N1CCN(C(=O)CN2CCN(c3ccc4nc(CC)c(N(C)c5nc(-c6ccc(F)cc6)c(C#N)s5)n4c3)CC2)CC1` stands 19 nM; under `CCc1nc2ccc(N3CCN(CC(=O)N4CCN(CCF)CC4)CC3)cn2c1N(C)c1nc(-c2ccc(F)cc2)c(C#N)s1`, 13 nM.
Turning to `CCc1nc2ccc(N3CCN(CC(=O)N4CCC(CF)C4)CC3)cn2c1N(C)c1nc(-c2ccc(F)cc2)c(C#N)s1` (stereo not drawn), at Autotaxin, the Ki turned out to be 7 nM.
Take `CCc1nc2ccc(N3CCN(CC(=O)N4CCC([18F])CC4)CC3)cn2c1N(C)c1nc(-c2ccc(F)cc2)c(C#N)s1`: the Drug uptake in data set [9] was 10 % ID/g.
